{"source": "ChEMBL document CHEMBL1201862", "about": "“PubChem BioAssay data set” (2004)", "key": {"[1]": {"biological_target": "T1, 1-phosphatidylinositol 4,5-bisphosphate phosphodiesterase gamma-1 (Homo sapiens, UniProt P19174)", "T1 sequence (P19174 whole entry)": "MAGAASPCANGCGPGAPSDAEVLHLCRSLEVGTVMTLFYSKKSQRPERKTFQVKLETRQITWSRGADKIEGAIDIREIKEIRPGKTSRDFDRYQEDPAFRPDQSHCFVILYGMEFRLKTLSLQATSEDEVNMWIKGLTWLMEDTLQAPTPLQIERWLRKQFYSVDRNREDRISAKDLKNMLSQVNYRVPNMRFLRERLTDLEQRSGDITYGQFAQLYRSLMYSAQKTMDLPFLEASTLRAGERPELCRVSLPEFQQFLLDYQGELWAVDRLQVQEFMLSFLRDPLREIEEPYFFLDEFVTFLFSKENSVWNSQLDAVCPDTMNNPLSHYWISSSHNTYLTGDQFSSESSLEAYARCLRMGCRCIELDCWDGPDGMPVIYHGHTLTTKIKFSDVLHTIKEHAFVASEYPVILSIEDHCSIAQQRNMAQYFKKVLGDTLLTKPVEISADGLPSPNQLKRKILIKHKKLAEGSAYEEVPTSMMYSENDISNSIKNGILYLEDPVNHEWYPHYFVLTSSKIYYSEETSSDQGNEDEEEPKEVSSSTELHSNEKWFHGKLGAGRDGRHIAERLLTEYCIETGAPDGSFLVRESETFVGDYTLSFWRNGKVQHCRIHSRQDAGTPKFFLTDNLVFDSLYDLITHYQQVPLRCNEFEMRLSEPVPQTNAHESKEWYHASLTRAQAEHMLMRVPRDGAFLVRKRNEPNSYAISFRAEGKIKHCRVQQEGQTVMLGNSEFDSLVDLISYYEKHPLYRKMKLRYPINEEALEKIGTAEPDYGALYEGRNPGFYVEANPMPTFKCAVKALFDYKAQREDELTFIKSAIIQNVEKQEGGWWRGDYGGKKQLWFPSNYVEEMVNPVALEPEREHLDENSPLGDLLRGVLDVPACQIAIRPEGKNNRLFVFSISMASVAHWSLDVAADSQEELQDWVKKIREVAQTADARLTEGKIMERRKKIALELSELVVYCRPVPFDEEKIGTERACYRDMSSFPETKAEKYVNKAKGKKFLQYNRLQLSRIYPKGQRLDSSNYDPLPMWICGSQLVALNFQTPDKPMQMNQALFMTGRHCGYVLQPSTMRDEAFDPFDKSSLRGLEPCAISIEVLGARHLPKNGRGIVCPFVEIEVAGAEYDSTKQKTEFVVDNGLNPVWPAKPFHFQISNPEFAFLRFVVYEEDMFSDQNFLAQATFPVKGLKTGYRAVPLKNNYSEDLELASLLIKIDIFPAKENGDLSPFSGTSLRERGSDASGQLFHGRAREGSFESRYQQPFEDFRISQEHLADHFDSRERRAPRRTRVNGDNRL", "experiment": "Counterscreen for inhibitors of phospholipase C isozymes (PLC-B3): Fluorescence-based biochemical high throughput dose response assay to identify inhibitors of phospholipase C isozymes (PLC-gamma1)."}, "[2]": {"biological_target": "Sphingosine 1-phosphate receptor 2 (Homo sapiens, UniProt O95136)", "sequence (O95136 whole entry)": "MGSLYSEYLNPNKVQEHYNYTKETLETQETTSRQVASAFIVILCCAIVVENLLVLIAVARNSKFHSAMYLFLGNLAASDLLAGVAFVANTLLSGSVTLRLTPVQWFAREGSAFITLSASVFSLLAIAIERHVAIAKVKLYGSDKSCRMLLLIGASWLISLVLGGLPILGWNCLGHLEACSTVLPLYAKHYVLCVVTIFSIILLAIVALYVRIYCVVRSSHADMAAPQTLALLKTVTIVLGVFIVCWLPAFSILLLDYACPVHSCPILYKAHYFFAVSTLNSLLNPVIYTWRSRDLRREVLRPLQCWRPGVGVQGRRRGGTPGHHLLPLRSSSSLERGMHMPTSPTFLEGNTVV", "experiment": "Dose Response Cell Based Assay for Antagonists of the S1P2 Receptor. [Related pubchem assays: 856, 736 ]", "type": "functional"}, "[3]": {"biological_target": "Lysine-specific demethylase 4C (Homo sapiens, UniProt Q9H3R0)", "sequence (Q9H3R0 whole entry)": "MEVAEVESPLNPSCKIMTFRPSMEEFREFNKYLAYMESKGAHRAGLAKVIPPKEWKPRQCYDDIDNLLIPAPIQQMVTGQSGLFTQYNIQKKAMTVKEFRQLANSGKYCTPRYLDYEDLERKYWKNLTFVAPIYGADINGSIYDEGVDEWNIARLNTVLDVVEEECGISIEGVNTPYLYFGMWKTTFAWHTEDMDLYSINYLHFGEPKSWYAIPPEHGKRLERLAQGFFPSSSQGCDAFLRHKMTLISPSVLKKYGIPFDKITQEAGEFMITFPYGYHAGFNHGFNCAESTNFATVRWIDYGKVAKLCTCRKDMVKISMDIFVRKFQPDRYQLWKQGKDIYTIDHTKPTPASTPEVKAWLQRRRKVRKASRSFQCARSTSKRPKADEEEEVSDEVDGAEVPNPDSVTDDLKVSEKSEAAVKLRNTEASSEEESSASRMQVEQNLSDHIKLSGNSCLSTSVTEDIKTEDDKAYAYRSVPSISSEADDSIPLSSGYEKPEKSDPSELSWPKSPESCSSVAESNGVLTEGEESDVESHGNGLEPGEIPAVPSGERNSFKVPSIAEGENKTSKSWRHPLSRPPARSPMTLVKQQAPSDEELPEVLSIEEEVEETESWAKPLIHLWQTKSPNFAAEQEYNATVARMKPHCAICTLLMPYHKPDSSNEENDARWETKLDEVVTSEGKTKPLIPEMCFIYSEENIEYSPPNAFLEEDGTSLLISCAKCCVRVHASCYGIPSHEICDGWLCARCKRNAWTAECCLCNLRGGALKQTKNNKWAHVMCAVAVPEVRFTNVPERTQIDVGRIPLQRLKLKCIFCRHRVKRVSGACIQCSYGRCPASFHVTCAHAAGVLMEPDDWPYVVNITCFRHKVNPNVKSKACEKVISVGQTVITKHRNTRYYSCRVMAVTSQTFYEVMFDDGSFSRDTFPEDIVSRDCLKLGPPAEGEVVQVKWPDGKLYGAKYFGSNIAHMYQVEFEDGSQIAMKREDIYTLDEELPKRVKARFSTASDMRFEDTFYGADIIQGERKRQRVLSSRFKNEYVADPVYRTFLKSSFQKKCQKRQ", "experiment": "inhibition of JMJD2C H3K9me3 demethylation – biochemical, DELFIA europium, cherry-picked samples, dose response (AID 488835)", "type": "functional"}, "[4]": {"experiment": "THP-1 cell cytotoxicity, dose response, cytotoxicity control for non-replicating M. tuberculosis project (AID 489025)", "type": "functional"}, "[5]": {"experiment": "DRD fibroblast viability loss – cell-based, non-viral oncogenic, luminescence, dose response (AID 1934)", "type": "functional", "settings": "Homo sapiens"}, "[6]": {"biological_target": "T2, Cysteine protease ATG4B (Homo sapiens, UniProt Q9Y4P1)", "T2 sequence (Q9Y4P1 whole entry)": "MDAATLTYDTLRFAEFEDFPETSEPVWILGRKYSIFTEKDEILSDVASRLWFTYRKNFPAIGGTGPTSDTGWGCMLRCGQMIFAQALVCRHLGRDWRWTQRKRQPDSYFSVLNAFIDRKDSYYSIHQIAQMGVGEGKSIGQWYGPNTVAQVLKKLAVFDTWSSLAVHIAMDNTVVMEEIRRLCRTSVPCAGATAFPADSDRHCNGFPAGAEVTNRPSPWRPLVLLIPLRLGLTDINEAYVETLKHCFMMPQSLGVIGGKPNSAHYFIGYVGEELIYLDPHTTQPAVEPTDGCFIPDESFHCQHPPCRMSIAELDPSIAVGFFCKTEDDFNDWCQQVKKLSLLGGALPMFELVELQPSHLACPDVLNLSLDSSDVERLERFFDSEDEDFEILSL", "type": "functional"}, "[7]": {"biological_target": "Caspase-9 (Homo sapiens, UniProt P55211)", "sequence (P55211 1-315 limits assumed)": "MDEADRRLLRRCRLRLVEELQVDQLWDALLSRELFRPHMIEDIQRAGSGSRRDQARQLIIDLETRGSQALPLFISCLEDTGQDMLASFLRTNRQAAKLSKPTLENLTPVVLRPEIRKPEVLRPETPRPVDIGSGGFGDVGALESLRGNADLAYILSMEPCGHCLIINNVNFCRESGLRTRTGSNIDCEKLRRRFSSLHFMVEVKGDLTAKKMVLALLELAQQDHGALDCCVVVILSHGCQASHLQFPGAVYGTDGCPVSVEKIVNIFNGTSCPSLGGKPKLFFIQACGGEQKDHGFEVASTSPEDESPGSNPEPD", "sequence (P55211 331-416 limits assumed)": "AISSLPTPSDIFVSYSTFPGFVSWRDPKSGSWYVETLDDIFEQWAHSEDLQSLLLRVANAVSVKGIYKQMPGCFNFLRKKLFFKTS", "experiment": "inhibitors of purified CASP9 protease – biochemical, fluorescence, plate reader, cherry-picked samples, selectivity assay for caspase-6 inhibitor project, dose response (AID 743293)"}, "[8]": {"biological_target": "T3, Heat shock factor protein 1 (Mus musculus, UniProt P38532)", "T3 sequence (P38532 whole entry)": "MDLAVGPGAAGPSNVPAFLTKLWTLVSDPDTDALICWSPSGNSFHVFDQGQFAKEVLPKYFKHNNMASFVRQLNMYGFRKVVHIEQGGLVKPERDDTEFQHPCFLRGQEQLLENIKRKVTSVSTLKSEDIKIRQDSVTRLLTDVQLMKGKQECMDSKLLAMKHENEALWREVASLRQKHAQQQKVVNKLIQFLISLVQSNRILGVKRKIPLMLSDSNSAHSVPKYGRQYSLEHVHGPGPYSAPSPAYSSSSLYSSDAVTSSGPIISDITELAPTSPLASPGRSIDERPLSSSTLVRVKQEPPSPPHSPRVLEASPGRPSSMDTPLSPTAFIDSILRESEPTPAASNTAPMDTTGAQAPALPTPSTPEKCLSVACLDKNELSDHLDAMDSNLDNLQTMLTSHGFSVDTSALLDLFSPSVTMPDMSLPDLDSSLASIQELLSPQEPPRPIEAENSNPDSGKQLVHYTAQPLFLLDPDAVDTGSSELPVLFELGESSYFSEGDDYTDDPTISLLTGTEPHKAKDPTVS", "experiment": "enhancement of HSF1-driven luciferase signal – cell-based, NIH3T3, luminescence, dose retest, confirmation (AID 435004);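 further: stress induced by proteasome inhibitor MG132 added 30 min after compound; actives raise luminescence as potentiators of the MG132 stress response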", "type": "functional"}}, "note": "Calls of active or inactive are those of the source.", "data": [{"smiles": "O=C(CCN1C(=O)/C(=C\\c2ccco2)SC1=S)Nc1ccc(C(=O)O)c(O)c1", "values": [{"measurement": "IC50", "setting": "[1]", "result": "> 122 µM (inactive)"}]}, {"smiles": "Cc1nc2c(=O)n(C)c(=O)nc-2n(C)n1", "values": [{"measurement": "IC50", "setting": "[2]", "result": "1.4 µM (active)"}, {"measurement": "AC50", "setting": "[3]", "result": "0.425 µM (active)"}, {"measurement": "CC50", "setting": "[4]", "result": "2.73 µM (active)"}, {"measurement": "EC50", "setting": "[5]", "result": "4.39 µM (active)"}, {"measurement": "IC50", "setting": "[6]", "result": "3.73 µM (active)"}]}, {"smiles": "Oc1nc(Nc2ccccc2Cl)cc2ccccc12", "values": [{"measurement": "AC50", "setting": "[7]", "result": "28.8 µM (active)"}, {"measurement": "EC50", "setting": "[8]", "result": "136 µM (active)"}]}]}
